Values joined by “and” are separate entries in the source; they are usually repeats but may differ in a detail not shown here. Equal values may be shown once.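 Five compound concentrations were applied to cells in 96-well plates for 48 hours; endpoints were derived by simple linear interpolation of the resulting dose-response curve. GI50: concentration for 50% inhibition of growth. TGI denotes the concentration required for complete inhibition of growth.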
Assays:
Assay in all cases: NCI tumour cell line growth inhibition, 48 h
UO-31 renal = test system: UO-31 renal
IGROV1 ovarian = test system: IGROV1 ovarian
CAKI-1 renal = test system: CAKI-1 renal
HS 578T breast = test system: HS 578T breast
PC-3 prostate = test system: PC-3 prostate
SF-268 CNS = test system: SF-268 CNS
DU-145 prostate = test system: DU-145 prostate
HCT-116 colon = test system: HCT-116 colon
SR leukemia = test system: SR leukemia
EKVX NSCLC = test system: EKVX NSCLC

| SMILES | GI50 (UO-31 renal) [µM] | TGI (UO-31 renal) | GI50 (IGROV1 ovarian) [µM] | TGI (IGROV1 ovarian) [µM] | GI50 (CAKI-1 renal) [µM] | TGI (CAKI-1 renal) [µM] | GI50 (HS 578T breast) [µM] | TGI (HS 578T breast) [µM] | GI50 (PC-3 prostate) [µM] | TGI (PC-3 prostate) [µM] | GI50 (SF-268 CNS) [µM] | TGI (SF-268 CNS) | GI50 (DU-145 prostate) [µM] | TGI (DU-145 prostate) [µM] | GI50 (HCT-116 colon) [µM] | TGI (HCT-116 colon) | GI50 (SR leukemia) [µM] | TGI (SR leukemia) [µM] | GI50 (EKVX NSCLC) [µM] | TGI (EKVX NSCLC) [µM] |
| --- | --- | --- | --- | --- | --- | --- | --- | --- | --- | --- | --- | --- | --- | --- | --- | --- | --- | --- | --- | --- |
| C[C@]12CC[C@@H]3c4ccc(O)cc4CC[C@H]3[C@@H]1CC[C@@H]2NS(=O)(=O)c1cccc(C(F)(F)F)c1 | 2.25 | 11.6 µM | 5.19 | 18 | 3.23 | 11.8 | 3.24 | 15.6 | 2.78 | 13.9 | 4.52 | 18.5 µM | 5.83 | 18.4 | 2.61 | 7.12 µM | 3.98 | 27.2 |  |  |
| COc1ccc(-c2cc(-c3ccccc3)nc(N3CCN(CCNc4ccnc5cc(Cl)ccc45)CC3)n2)cc1 | 1.4 | 3.37 µM | 1.48 | 3.19 | 2.97 | 12.1 | 11.3 | 41.9 |  |  | 1.75 | 3.81 µM | 1.88 | 3.94 |  |  | 0.31 | > 100 | 19 | 48.3 |
| O=c1c2cc(Br)ccc2nc(-c2ccccc2Cl)n1NCC1(O)OCC(O)C(O)C1O (configuration not stated) |  | > 100 µM |  |  |  | > 100 |  |  |  |  |  | > 100 µM |  |  |  | > 100 µM |  | > 100 |  | > 100 |
| CN(C)CCNC(=O)c1ccc(C(=O)NCCN(C)C)c2nc3ccccc3cc12 |  | 18 µM |  | > 50.2 |  | 9.09 |  |  |  |  |  | 6.79 µM |  |  |  | 6.08 µM |  | 2.49 |  | 6.89 |
| O=C(O)C12C3C4C1C1C2C3C1(Br)C41OCCO1 (configuration not stated) |  | > 100 µM |  | > 100 |  |  |  |  |  |  |  | > 100 µM |  |  |  | > 100 µM |  |  |  | > 100 |
| COc1ccc(C2=NN(C(=O)COc3ccc(Cl)cc3)C(O)(c3ccc(Cl)cc3)C2)cc1 (configuration not stated) |  | > 100 µM |  | > 100 |  | > 100 |  |  |  |  |  | > 100 µM |  |  |  | > 100 µM |  |  |  |  |
| N#Cc1cccc(C(=O)Nc2cccc(NC(=O)c3cccc(C#N)c3)c2)c1 | > 100 | > 100 µM | > 100 | > 100 | 6.95 | > 100 | 39 | > 100 | 77.6 | > 100 | 17 | 56 µM | 66.6 | > 100 | 78.1 | > 100 µM |  |  | > 100 | > 100 |
| CC(C)C[C@H](NC(=O)[C@H]1O[C@@H]1C(=O)O)C(=O)NCCc1ccc(O)cc1 | 38.4 | > 100 µM | > 100 | > 100 | > 100 | > 100 | > 100 | > 100 | > 100 | > 100 | > 100 | > 100 µM | > 100 | > 100 | > 100 | > 100 µM |  |  | > 100 | > 100 |
| CC(/C(=N/NC(=O)C(N)=O)c1c(Cl)ccc(Cl)c1O)C1(O)C(=O)Nc2ccccc21 (configuration not stated) |  | > 100 µM |  | > 100 |  | > 100 |  |  |  |  |  | > 100 µM |  |  |  | > 100 µM |  |  |  | > 100 |
| O/N=C/c1cc2c(cc1Br)OCO2 |  | > 100 µM |  | > 100 |  | > 100 |  |  |  |  |  |  |  |  |  | > 100 µM |  | > 100 |  | > 100 |
| COc1ccc(-c2cnnn2-c2cc(OC)c3c(c2)OCO3)cc1 | 1.1 | > 100 µM | 0.28 | > 100 | 0.118 | > 100 | 0.186 | > 100 | 0.167 | > 100 | 0.775 | > 100 µM | 0.291 |  | 0.0596 | > 42.3 µM | 0.0466 | > 51.7 |  |  |
| CS(=O)(=O)OCCn1cnc2nc(NC(=O)c3ccccc3)[nH]c(=O)c21 |  | > 100 µM |  | > 100 |  | > 100 |  |  |  |  |  | > 100 µM |  |  |  | > 100 µM |  | > 100 |  | > 100 |
| Fc1cccc2cc3ccc4cccc5ccc(c12)c3c45 |  | > 100 µM |  | > 100 |  | > 100 |  |  |  |  |  | > 100 µM |  |  |  | > 100 µM |  |  |  | > 100 |
| Cc1cccc(NC(=O)c2cc3cc(N=Nc4ccccc4Cl)ccc3oc2=O)c1 |  | 55.7 µM |  | > 100 |  | > 100 |  |  |  |  |  | 84.4 µM |  |  |  | 57.3 µM |  |  |  | > 100 |
| CC(=O)Nc1ccc(/C=N\N2C(=O)c3ccccc3C2=O)cc1 |  | > 100 µM |  | > 100 |  | > 100 |  |  |  |  |  | > 100 µM |  |  |  | > 100 µM |  | > 100 |  | > 100 |
| CCCCCCCCCCC(O)[C@H]1CCC(C2CC[C@H]([C@H](O)CCCCCCCCCCC(O)CC3=CC(C)OC3=O)O2)O1 (some centres not stated) |  | 2.36 µM and 2.67 µM |  |  | 4.09 |  |  | 3.5 |  | 3.73 | 1.11 | 3.67 µM and 8.61 µM |  |  | 2.24 | 8.87 µM and 10 µM |  | 9.23 | 2.09 |  |
| CCCCCCCCC(=O)N(C)C1C2CN3CCC(O2)C13 (configuration not stated) |  | > 100 µM |  | > 100 |  | > 100 |  |  |  |  |  | > 100 µM |  |  |  | > 100 µM |  |  |  | > 100 |
| NC(=NC1CCCCCCC1)c1ccc(N2CCN(c3ccc(C(N)=NC4CCCCCCC4)cc3)CC2)cc1 | 48.3 | > 100 µM | 53.1 | > 100 | 23.1 | 63.1 |  |  | 22.6 | 46.8 | 16.7 | 42.7 µM | 1.94 | 12.6 |  |  | 26.6 | > 100 |  |  |
| CCOC(=O)C1=C(NNC(=O)Cc2ccccc2)CSC1=Nc1ccccc1 |  | > 100 µM |  | > 100 |  | > 100 |  |  |  |  |  | > 100 µM |  |  |  | > 100 µM |  | > 100 |  | > 100 |
| CCC(CC)n1cc(C(=O)NC(=O)NCCCCCOC(=O)CCCCCCCCCCC(=O)OCCCCCNC(=O)NC(=O)c2cn(C(CC)CC)c(=O)[nH]c2=O)c(=O)[nH]c1=O |  | > 100 µM |  | > 100 |  | > 100 |  |  |  |  |  | > 100 µM |  |  |  | > 100 µM |  | > 100 |  | > 100 |
| Cc1cc(C)c2c(c1)Nc1ccccc1P2c1ccccc1 (configuration not stated) |  | 57.8 µM |  | > 100 |  | 98.1 |  |  |  |  |  | > 100 µM |  |  |  |  |  |  |  | 91.1 |

Source: PubChem BioAssay (NCI)
